Results reported in patent US20240180895A1, “USE OF KAPPA OPIOID RECEPTOR AGONISTS TO TREAT CARDIOVASCULAR DISEASE” (Board of Supervisors of Louisiana State University and …, priority 2021, published 2024).

Key:
[1] = test system: conscious Sprague-Dawley rats; assay: Acute cardiovascular and renal excretory studies, i.v. bolus (Example 3); format: in vivo, rat
Protocol: (§1) Animals: Male Sprague-Dawley (SD) rats (Envigo Labs, Indianapolis, IN), 300-350 g, were individually housed under a 12 h light-dark cycle and allowed tap water and standard rodent diet ad libitum. Rats were randomly assigned to experimental groups for all acute and subacute studies. All procedures were approved by the Louisiana State University Health Sciences Center Institutional Animal Care and Use Committee and conducted in accordance with the National Institutes of Health guidelines for the care and use of animals.
Surgical Procedures: Aseptic technique was followed for all surgical procedures. On the morning of the experiment, rats were anesthetized with and maintained under inhaled 2% isoflurane, and polyethylene catheters (PE50; BD Diagnostics, Sparks, MD) were surgically inserted into the left femoral vein and left femoral artery for the infusion of saline and/or drug administration and the recording of arterial blood pressure, respectively. Subsequently, a suprapubic incision was made and a flanged polyethylene catheter (PE240; BD Diagnostics, Sparks, MD) was inserted into the bladder, exteriorized, and sutured to surrounding muscle and skin. Rats were then placed in an elevated restrainer (Krowicki & Kapusta, 2011) to recover from surgery and allow collection of urine. When acute experimental protocols were completed, rats were anesthetized via isoflurane and decapitated.
Acute Cardiovascular and Renal Excretory Studies: Following surgery, rats received an i.v. infusion of isotonic saline at 55 μL min^−1 throughout the duration of the experiment and were allowed 4-6 hours to recover from anesthesia. Arterial catheters were connected to a pressure transducer (MLT0670, ADInstruments, Sydney, Australia), which was connected to Powerlab 8/30 (ADInstruments) for recording of pulsatile and mean arterial blood pressure (MAP) and heart rate (HR). Blood pressure and HR were visualized using LabChart software (v8.1.5; ADInstruments). […] Following this control period, drug or vehicle (isotonic saline) was injected into the femoral vein catheter at a volume of 2 cc kg^−1, and urines were collected in 10 minute periods for a span of 90 minutes. […] All groups are n=6. Urine volume was measured gravimetrically, urine sodium and potassium concentrations were measured using flame photometry (model 943; Instrumentation Laboratories, Lexington, MA), and urine osmolality was measured using a vapor pressure osmometer (model 5600; WESCOR, Logan, UT).
(§2) Experimental Design and Analysis: All results are expressed as mean±SEM. […] Means between groups for total urine output, Na^+ concentration, K^+ concentration, and urine osmolality were compared using a Student's t-test. Statistical significance was characterized as P<0.05. Statistics were carried out using Prism 7.05 software (GraphPad Software, Inc., San Diego, CA) and IBM SPSS Statistics (IBM, Armonk, NY).

[2] = test system: conscious Sprague-Dawley rats; assay: Metabolic cage renal excretory studies, oral gavage (Example 3); format: in vivo, rat
Protocol: as §1
Metabolic Cage Renal Excretory Studies: Rats were placed in metabolic cages (model 18cv, Fenco, Cataumet, MA) for 2 hours to allow for acclimation and voiding of residual urine. Following the acclimation period, rats were volume loaded with 20 cc kg^−1 drug or vehicle (isotonic saline) via oral gavage. Urines were collected each hour over a 5-hour period. Following completion of the study rats were returned to their home cages. […] These points are marked on the figures with number of measurements in parentheses.
as §2

[3] = in rats; cited from earlier work
Sprague-Dawley rats [4] = assay: Reversal of oral furosemide diuretic resistance by oral nalfurafine (FIG. 17); format: in vivo, rat; settings: nalfurafine 150 μg/kg oral added from day 7
Protocol: (§3) Male Sprague-Dawley rats were placed in individual metabolic cages in a room with 12-hour automatic light on/off control and allowed tap water and rodent chow ad libitum. Over the next two (2) days (control period), rats were administered vehicle (5% NaOH; 1 M PBS) orally (gavage) in the morning (9:00 am) and afternoon (2:00 pm) and urine was collected for 5-hours after the first oral treatment. […] This was repeated for 8 consecutive days (experimental period).

Sprague-Dawley rats [5] = assay: Prevention of diuretic resistance to twice daily furosemide by nalfurafine, 5-hour urine (FIG. 15); format: in vivo, rat; settings: nalfurafine 10 μg/kg IP added to furosemide 20 mg/kg twice daily
Protocol: as §3, with “M PBS, IP)” for “M PBS) orally (gavage)”, “pm) of each day, with” for “pm) and”, “urine” for “urine was”, “5-hours starting immediately” for “5-hours”, “first injection.” for “first oral treatment.”, “for 4” for “for 8”

[6] = i.v. bolus, cumulative 90-min urine, same doses, mean±SEM
[7] = oral gavage, cumulative 5-hour urine, same doses, mean±SEM

Which results are given for `CN(C(=O)/C=C/c1ccoc1)[C@@H]1CC[C@@]2(O)[C@H]3Cc4ccc(O)c5c4[C@@]2(CCN3CC2CC2)[C@H]1O5` [nalfurafine, Nalfurafine]?
Duration of the increase in urine flow rate above control ([1]; after i.v. bolus): 50 min; Time of peak diuresis (urine flow rate) ([1]; after i.v. bolus): 30 min; Time of peak antikaliuresis ([1]; after i.v. bolus 5 μg kg−1): 50 min; Time of peak antinatriuresis ([1]; after i.v. bolus 5 μg kg−1): 40 min; Effect on heart rate (HR) ([1]; i.v. bolus, 90-min protocol): did not change HR; Potassium concentration [K+] in cumulative urine [1, 6]: 4.51±0.68 μeq ml^−1; Sodium concentration [Na+] in cumulative urine [1, 6]: 43.59±5.71 μeq ml^−1; Urine osmolality [1, 6]: 158.7 ± 16.78 mmol/kg; Mean arterial pressure (MAP), peak Δ ([1]; i.v. bolus, peak change vs group control value, time of peak 40 to 90 min as printed): −11 mmHg; Decrease in MAP ([1]; i.v. nalfurafine, as summarised in the discussion): ~10 mmHg; Time of peak diuresis ([2]; after oral gavage 150 μg kg−1): 2 h; Potassium concentration [K+] in cumulative urine [2, 7]: 14.55±1.46 μeq ml^−1; Sodium concentration [Na+] in cumulative urine [2, 7]: 16.92±1.45 μeq ml^−1; Total urine output ([2]; oral gavage, cumulative urine of 5-hour protocol, nalfurafine 150 μg kg−1, furosemide 50 mg kg−1, HCTZ 5 mg kg−1, amiloride 5 mg kg−1, mean±SEM, n=6): 14.55 ± 0.57 mL; Half-life [3]: ~6 h; Effect on established diuretic resistance to furosemide (Sprague-Dawley rats [4]): able to treat or rescue the diuretic resistance; Effect on diuretic resistance to furosemide (Sprague-Dawley rats [5]): prevents the diuretic resistance
